Measurements taken from ChEMBL document CHEMBL1201862, “PubChem BioAssay data set” (2004).
Calls of active or inactive are those of the source.

Columns and labels:
[1] = biological target: Peroxisome proliferator-activated receptor gamma/Nuclear receptor coactivator 1 (Homo sapiens, UniProt P37231); assay: (§1) TR-FRET dose response biochemical High Throughput Screening assay for agonists of the steroid receptor coactivator 1 (SRC-1) recruitment by the peroxisome proliferator-activated receptor gamma (PPAR gamma): non-selective agonists. [Related pubchem assays (depositor defined):AID1300, AID1808, AID504735, AID631]; assay type: protein assay
[2] = biological target: Peroxisome proliferator-activated receptor gamma/Nuclear receptor coactivator 3 (Homo sapiens, UniProt P37231); assay: as §1, with “3 (SRC-3)” for “1 (SRC-1)”, “assays: 1301 (Confirmation screen.), 1048 (Primary screen.)]” for “assays (depositor defined):AID1300, AID1808, AID504735, AID631]”; assay type: functional
[3] = biological target: Peroxisome proliferator-activated receptor gamma/Nuclear receptor corepressor 2 (Homo sapiens, UniProt P37231+Q9Y618); assay: Counterscreen for NR2E3 inverse agonists: TR-FRET-based biochemical high throughput dose response assay to identify inverse agonists of the interaction between peroxisome proliferator-activated receptor gamma (PPARg) and nuclear receptor co-repressor 2 (NCOR2).; assay type: functional
[4] = biological target: Photoreceptor-specific nuclear receptor (Homo sapiens, UniProt Q9Y5X4); assay: NR2E3 inverse agonists, dose response, biochemical, TR-FRET (AID 463256); assay type: functional
[5] = biological target: Peroxisome proliferator-activated receptor gamma/Nuclear receptor coactivator 2 (Homo sapiens, UniProt P37231); assay: TR-FRET dose response biochemical High Throughput Screening assay for agonists of the steroid receptor coactivator 2 (SRC-2) recruitment by the peroxisome proliferator-activated receptor gamma (PPAR gamma): non-selective agonists. [Related pubchem assays: 1297, 1032 ]; assay type: functional
Mu-type opioid receptor [6] = biological target: T1, Mu-type opioid receptor (Homo sapiens, UniProt P35372); assay: MOR agonists by imaging, SAR follow-up, image-based (AID 2352); assay type: functional
[7] = biological target: T2, Delta-type opioid receptor (Homo sapiens, UniProt P41143); assay: DOR agonists, SAR follow-up, image-based (AID 2370); assay type: functional
[8] = biological target: T3, Kappa-type opioid receptor (Homo sapiens, UniProt P41145); assay: KOR antagonists by imaging, SAR follow-up, image-based (AID 2348); assay type: functional
Mu-type opioid receptor [9] = biological target: T1, Mu-type opioid receptor; assay: MOR antagonists, SAR follow-up, image-based (AID 2420); assay type: functional;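 note: compounds added before stimulation of receptor with agonist DAMGO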
[10] = biological target: T3, Kappa-type opioid receptor; assay: KOR agonist analogs, imaging readout, SAR follow-up, image-based (AID 2359); assay type: functional
[11] = biological target: T2, Delta-type opioid receptor; assay: DOR antagonists, SAR follow-up, image-based (AID 2357); assay type: functional
[12] = biological target: T3, Kappa-type opioid receptor; assay: kappa opioid receptor blockers, cell-based, luminescence, beta-arrestin, SAR follow-up (AID 2285); assay type: functional
[13] = system: Streptococcus sp. 'group A'; assay: growth inhibition of control SK(-) GAS strain, dose response, counter-screen for streptokinase expression inhibitor project, luminescence, kanamycin, BacTiterGlo, confirmation (AID 1900); assay type: functional, organism-based
Streptokinase A = biological target: T4, Streptokinase A (Streptococcus pyogenes serotype M1, UniProt P10520); assay: S. pyogenes streptokinase expression inhibitors, potency, dose response, plasminogen activation absorbance, OD405 (AID 1914); assay type: functional, Streptococcus pyogenes M1 GAS;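 note: secreted streptokinase activity via plasminogen activation per viability signal from cell pellet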
T4 sequence (P10520 whole entry): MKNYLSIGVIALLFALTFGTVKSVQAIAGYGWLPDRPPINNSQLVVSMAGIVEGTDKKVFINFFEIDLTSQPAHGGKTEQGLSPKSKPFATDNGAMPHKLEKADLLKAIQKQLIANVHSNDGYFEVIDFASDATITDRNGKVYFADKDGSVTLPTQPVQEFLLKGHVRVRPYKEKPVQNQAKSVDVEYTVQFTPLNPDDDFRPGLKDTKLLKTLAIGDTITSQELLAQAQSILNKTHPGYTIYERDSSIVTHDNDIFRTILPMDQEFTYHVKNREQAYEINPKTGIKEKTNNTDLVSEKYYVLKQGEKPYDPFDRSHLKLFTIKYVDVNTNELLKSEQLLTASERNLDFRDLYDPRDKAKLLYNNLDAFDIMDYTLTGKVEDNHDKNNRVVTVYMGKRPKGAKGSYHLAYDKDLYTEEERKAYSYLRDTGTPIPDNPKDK

[14] = inhibitors of intracellular T. cruzi replication, confirmation, NIH3T3 host cells, beta-gal luminescence (AID 2044); assay type: functional, cell-based;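 note: intracellular parasites grown in NIH/3T3 mouse fibroblasts as host cells; luminescent beta-galactosidase reporter signal from transgenic T. cruzi replicating inside host cells; inhibitors lower the luminescence signal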
[15] = biological target: T3, Kappa-type opioid receptor; assay type: functional
[16] = cytotoxicity toward NIH3T3 fibroblasts, dose response, counter-screen, cell-based, ATP luminescence, mouse fibroblasts (AID 2010); assay type: functional;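 note: cells exposed to compound for about 90 hours before reading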
Beta-galactosidase = Beta-galactosidase (Escherichia coli, UniProt Q8VNN2); assay type: functional
[17] = biological target: T3, Kappa-type opioid receptor; assay type: functional; remark: listed apart in the source
Streptococcus = assay: Group A Streptococcus viability loss, dose response, counter-screen for streptokinase expression inhibitor project, luminescence, BacTiterGlo (AID 1915); assay type: functional, organism-based;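 note: potency for reduction of bacterial viability or growth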
[18] = biological target: T5, Polyadenylate-binding protein 1 (Homo sapiens, UniProt P11940); assay: PABP1 MLLE–PAM2 interaction inhibitors, dose response, miRNA deadenylation inhibitor project, biochemical, fluorescence polarization, Cy5-PAM2 peptide, secondary (AID 602260); assay type: functional; conditions: read-out: IC50_Mean
[19] = biological target: T5, Polyadenylate-binding protein 1; assay: PABP1 MLLE–PAM2 binding inhibitor potency, dose response, biochemical, fluorescence polarization, FITC-PAM2 peptide (AID 602259); assay type: functional; conditions: read-out: IC50_Mean
[20] = HepG2 cell cytotoxicity, dose response, cytotoxicity control for Shn3 inhibitor project, CellTiter-Glo, cherry-picked (AID 624134); assay type: functional, cell-based
[21] = control 3'UTR Renilla luciferase suppression, dose response, counter-screen for Shn3 inhibitor project, cell-based, Clone20-Shn3RL, cherry-picked (AID 624133); assay type: functional

T2 sequence (P41143 whole entry): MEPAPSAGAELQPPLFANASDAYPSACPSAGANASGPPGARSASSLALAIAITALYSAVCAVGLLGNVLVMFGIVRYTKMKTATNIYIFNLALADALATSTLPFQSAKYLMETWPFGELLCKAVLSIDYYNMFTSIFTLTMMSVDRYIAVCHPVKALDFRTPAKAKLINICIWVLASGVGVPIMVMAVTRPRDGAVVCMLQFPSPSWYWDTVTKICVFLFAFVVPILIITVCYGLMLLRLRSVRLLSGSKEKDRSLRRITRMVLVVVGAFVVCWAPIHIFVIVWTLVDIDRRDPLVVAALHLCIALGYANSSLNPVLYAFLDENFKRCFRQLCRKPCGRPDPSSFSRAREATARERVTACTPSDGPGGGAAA
T1 sequence (P35372 whole entry): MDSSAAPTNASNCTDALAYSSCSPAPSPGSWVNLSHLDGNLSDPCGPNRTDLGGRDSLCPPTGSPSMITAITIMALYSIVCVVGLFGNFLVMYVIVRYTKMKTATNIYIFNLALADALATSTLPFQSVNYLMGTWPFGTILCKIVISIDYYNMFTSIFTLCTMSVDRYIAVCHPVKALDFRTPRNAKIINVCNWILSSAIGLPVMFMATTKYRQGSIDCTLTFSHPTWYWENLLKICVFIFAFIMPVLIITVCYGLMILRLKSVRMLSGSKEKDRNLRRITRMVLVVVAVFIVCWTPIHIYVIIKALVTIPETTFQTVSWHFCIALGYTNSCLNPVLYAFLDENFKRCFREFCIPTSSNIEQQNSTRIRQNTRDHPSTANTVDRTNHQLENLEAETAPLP
T3 sequence (P41145 whole entry): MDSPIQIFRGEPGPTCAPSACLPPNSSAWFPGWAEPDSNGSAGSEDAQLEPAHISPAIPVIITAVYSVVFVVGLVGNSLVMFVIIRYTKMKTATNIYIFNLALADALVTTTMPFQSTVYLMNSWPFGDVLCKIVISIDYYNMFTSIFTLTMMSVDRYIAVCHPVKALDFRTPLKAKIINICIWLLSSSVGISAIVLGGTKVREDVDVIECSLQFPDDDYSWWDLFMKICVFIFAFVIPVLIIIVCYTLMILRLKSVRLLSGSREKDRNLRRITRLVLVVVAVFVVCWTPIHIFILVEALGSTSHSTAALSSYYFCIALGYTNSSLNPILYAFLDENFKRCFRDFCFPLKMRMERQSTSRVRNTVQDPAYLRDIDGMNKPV
T5 sequence (P11940 whole entry): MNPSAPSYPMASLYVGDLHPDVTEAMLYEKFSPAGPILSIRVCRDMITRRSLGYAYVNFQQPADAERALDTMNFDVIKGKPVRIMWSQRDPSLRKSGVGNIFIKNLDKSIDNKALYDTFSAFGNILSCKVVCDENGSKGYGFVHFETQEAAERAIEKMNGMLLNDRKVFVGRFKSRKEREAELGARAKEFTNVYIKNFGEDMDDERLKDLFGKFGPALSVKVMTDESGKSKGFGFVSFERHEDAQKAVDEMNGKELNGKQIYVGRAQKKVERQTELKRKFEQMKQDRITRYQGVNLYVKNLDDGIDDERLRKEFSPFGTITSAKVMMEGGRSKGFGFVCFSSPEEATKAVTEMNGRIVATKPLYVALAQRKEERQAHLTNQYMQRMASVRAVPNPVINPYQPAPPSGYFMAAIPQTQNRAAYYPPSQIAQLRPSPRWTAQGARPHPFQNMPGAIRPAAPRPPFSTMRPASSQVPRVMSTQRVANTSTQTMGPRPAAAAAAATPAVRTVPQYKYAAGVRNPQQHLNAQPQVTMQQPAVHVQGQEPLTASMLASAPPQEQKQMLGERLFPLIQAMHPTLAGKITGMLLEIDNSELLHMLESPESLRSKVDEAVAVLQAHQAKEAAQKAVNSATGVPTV
Sequence of Peroxisome proliferator-activated receptor gamma/Nuclear receptor coactivator 3 (P37231 whole entry): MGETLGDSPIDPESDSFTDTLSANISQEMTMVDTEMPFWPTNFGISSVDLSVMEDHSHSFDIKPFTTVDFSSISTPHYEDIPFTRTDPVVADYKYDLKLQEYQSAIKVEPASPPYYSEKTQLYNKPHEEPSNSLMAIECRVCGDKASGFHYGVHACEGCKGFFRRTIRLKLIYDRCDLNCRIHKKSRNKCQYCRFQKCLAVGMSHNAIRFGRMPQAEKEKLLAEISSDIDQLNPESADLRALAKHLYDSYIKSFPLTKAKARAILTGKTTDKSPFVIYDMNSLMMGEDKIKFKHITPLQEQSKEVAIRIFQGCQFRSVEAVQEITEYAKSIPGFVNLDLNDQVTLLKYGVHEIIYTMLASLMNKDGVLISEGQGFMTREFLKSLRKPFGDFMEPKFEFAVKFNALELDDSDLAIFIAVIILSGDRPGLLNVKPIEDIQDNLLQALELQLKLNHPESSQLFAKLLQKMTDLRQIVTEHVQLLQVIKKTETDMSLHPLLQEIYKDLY
Sequence of Peroxisome proliferator-activated receptor gamma/Nuclear receptor coactivator 3 (Q9Y6Q9 whole entry, further chain): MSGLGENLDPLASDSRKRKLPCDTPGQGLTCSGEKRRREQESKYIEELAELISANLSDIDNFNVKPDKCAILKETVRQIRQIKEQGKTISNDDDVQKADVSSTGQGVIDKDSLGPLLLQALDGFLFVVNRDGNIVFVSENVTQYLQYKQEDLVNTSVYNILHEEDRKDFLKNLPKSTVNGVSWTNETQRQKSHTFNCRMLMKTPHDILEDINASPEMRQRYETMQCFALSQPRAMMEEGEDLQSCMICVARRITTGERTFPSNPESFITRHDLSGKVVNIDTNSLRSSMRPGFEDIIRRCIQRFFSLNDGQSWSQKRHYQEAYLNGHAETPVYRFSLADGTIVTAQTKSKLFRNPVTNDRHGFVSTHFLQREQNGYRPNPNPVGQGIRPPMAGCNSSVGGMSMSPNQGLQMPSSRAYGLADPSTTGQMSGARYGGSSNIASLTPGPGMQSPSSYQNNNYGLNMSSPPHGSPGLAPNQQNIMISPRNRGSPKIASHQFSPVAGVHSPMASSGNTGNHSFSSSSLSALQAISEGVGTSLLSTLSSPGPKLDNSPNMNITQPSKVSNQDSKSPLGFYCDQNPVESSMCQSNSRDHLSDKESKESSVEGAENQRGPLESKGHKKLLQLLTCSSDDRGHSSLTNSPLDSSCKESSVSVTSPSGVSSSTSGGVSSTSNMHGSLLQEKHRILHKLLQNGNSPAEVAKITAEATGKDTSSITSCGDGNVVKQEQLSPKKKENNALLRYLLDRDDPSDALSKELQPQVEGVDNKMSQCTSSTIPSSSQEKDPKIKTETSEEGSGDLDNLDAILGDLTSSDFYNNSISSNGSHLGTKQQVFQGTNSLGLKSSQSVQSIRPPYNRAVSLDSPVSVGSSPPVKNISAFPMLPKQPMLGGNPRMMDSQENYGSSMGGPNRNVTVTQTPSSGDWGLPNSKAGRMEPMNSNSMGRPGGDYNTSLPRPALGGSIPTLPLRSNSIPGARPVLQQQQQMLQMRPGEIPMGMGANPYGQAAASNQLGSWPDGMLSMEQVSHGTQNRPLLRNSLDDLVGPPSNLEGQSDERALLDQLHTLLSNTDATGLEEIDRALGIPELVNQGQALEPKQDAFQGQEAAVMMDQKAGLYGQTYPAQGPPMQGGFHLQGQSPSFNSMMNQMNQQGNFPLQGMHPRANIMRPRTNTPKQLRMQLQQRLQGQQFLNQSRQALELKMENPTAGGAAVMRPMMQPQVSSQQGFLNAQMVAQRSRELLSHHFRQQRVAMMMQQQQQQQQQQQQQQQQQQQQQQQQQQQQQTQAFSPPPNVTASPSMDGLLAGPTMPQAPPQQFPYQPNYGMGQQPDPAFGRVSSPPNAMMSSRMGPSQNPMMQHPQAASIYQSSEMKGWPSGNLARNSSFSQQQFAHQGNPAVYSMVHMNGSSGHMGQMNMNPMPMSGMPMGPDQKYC
Sequence of Beta-galactosidase (Q8VNN2 whole entry): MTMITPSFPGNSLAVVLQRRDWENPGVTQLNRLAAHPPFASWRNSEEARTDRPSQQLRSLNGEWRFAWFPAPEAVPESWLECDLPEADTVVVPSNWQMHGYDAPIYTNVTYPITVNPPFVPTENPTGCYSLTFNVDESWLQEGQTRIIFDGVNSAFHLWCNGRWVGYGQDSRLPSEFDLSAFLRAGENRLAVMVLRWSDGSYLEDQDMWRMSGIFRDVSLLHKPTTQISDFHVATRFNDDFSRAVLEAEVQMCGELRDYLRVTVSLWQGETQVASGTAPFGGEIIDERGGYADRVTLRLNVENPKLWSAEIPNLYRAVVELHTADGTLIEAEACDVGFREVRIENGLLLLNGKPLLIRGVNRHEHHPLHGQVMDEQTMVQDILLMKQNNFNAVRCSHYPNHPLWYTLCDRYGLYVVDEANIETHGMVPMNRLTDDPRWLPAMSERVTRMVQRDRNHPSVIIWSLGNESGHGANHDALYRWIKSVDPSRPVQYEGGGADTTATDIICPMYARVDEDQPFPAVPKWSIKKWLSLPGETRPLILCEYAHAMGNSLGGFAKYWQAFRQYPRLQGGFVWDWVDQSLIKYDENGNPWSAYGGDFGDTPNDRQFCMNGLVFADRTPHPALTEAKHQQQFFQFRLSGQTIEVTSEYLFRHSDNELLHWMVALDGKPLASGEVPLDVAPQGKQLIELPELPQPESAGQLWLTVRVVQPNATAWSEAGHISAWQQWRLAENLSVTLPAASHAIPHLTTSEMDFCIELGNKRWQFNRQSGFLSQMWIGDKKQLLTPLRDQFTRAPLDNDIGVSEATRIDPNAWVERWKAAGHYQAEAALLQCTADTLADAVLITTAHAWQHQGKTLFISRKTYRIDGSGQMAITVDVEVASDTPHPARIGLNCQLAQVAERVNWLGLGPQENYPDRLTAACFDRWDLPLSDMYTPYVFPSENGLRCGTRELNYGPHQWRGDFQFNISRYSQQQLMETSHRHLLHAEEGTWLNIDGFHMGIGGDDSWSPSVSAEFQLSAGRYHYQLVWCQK

SMILES	EC50 [1]	EC50 [2]	EC50 [5]	EC50 (Mu-type opioid receptor [6])	EC50 [7]	IC50 [8]	IC50 (Mu-type opioid receptor [9])	EC50 [10]	IC50 [11]	IC50 [12]	other results
COc1ccc(-c2cn3c(C)c(C(=O)Nc4cc(NC(C)=O)ccc4OC)sc3n2)cc1	12.9 µM (inactive)	> 79.4 µM (not active)	15 µM (not active)								IC50 [3]: 18 µM (not active); IC50 [4]: 23.2 µM (not active)
Cc1ccc(S(=O)(=O)NCc2ccc(C(=O)N3CCN(Cc4ccccc4)CC3)cc2)cc1				> 32 µM (inactive)	> 32 µM (inactive)	> 32 µM (inactive)	> 32 µM (inactive)	> 32 µM (inactive)	> 32 µM (inactive)	> 10 µM (inactive)	
Cn1c(=O)cc(SCC(=O)NCc2ccco2)c2ccccc21	> 79.4 µM (inactive)	> 79.4 µM (not active)	> 79.4 µM (not active)								
O=C(NC(NC(=S)Nc1c(Cl)cc(Cl)cc1Cl)C(Cl)(Cl)Cl)OCc1ccccc1 (centres undefined)				> 32 µM (inactive)	> 32 µM (inactive)	0.517 µM (active)	> 32 µM (inactive)	> 32 µM (inactive)	> 32 µM (inactive)	0.846 µM (active)	EC50 [13]: 0.562 µM (active); EC50 (Streptokinase A): 1.83 µM (active); EC50 [14]: 1.65 µM (active); IC50 [15]: 1.88 µM (active); EC50 [16]: > 60 µM (not active); EC50 (Beta-galactosidase): > 31.5 µM (inactive); IC50 [17]: 0.63 µM; EC50 (Streptococcus): 39.3 µM (inconclusive); IC50 [18]: > 66 µM (inactive); IC50 [19]: > 66 µM (inactive); AC50 [20]: 18.5 µM (active); AC50 [21]: 2.04 µM (active)
